Measurements as given in PubChem BioAssay (NCI).
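Dose response: 5 concentrations. Exposure: 48 h. Format: 96-well plates. Endpoint: linear interpolation; highest concentration if not reached. At the GI50, growth is halved. TGI: concentration producing complete growth inhibition.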

What was measured:
Test in all cases: NCI tumour cell line growth inhibition, 48 h
OVCAR-8 ovarian = test system: OVCAR-8 ovarian
HCT-15 colon = test system: HCT-15 colon
HL-60(TB) leukemia = test system: HL-60(TB) leukemia
A498 renal = test system: A498 renal
NCI-H460 lung = test system: NCI-H460 lung
UACC-62 melanoma = test system: UACC-62 melanoma
CCRF-CEM leukemia = test system: CCRF-CEM leukemia
HCC-2998 colon = test system: HCC-2998 colon
OVCAR-4 ovarian = test system: OVCAR-4 ovarian
HOP-92 NSCLC = test system: HOP-92 NSCLC

Row | SMILES | TGI (OVCAR-8 ovarian) | TGI (HCT-15 colon) | TGI (HL-60(TB) leukemia) | TGI (A498 renal) | TGI (NCI-H460 lung) | TGI (UACC-62 melanoma) | TGI (CCRF-CEM leukemia) | TGI (HCC-2998 colon) | TGI (OVCAR-4 ovarian) | TGI (HOP-92 NSCLC) | GI50 (OVCAR-8 ovarian) | GI50 (HCT-15 colon) | GI50 (A498 renal) | GI50 (NCI-H460 lung) | GI50 (UACC-62 melanoma) | GI50 (HOP-92 NSCLC) | GI50 (HCC-2998 colon) | GI50 (OVCAR-4 ovarian) | GI50 (CCRF-CEM leukemia)
1 | CC(C)=CC(=O)N(C)C1C2CN3CCC(O2)C13 (configuration not stated) | > 100 µM | > 100 µM | > 100 µM | > 100 µM | > 100 µM | > 100 µM | > 100 µM | > 100 µM | > 100 µM |  |  |  |  |  |  |  |  |  | 
2 | O=S(=O)(/C=C/C(=C/c1ccccc1)S(=O)(=O)c1ccccc1)c1ccccc1 | 3.08 µM | 3.3 µM |  |  | 3.45 µM | 3.85 µM | 3.05 µM | 3.45 µM | 3.07 µM |  |  |  |  |  |  |  |  |  | 
3 | Cc1ccc(/C(C#N)=C/c2cccc([N+](=O)[O-])c2)cc1 | > 100 µM | > 100 µM |  | > 100 µM | > 100 µM | > 100 µM |  | > 100 µM | > 100 µM | > 100 µM |  |  |  |  |  |  |  |  | 
4 | COCCNC(=O)C1C(=O)C(=O)N(CCOC)C1=O (configuration not stated) | > 100 µM | > 100 µM |  | > 100 µM |  | > 100 µM | > 100 µM | > 100 µM | > 100 µM | > 100 µM |  |  |  |  |  |  |  |  | 
5 | Cc1cc(C)nc(NS(=O)(=O)c2ccc(Nc3c4ccccc4nc4c(C(=O)Nc5ccc(S(=O)(=O)N=C(N)N)cc5)cccc34)cc2)n1 | > 100 µM | > 100 µM |  | > 100 µM | > 100 µM | > 100 µM | > 100 µM | > 100 µM | > 100 µM | > 100 µM |  |  |  |  |  |  |  |  | 
6 | Cc1ccc(S(=O)(=O)N/N=C(/CC(=O)c2c(C)n([O-])c3ccccc3[n+]2=O)C(=O)Nc2ccccc2C)cc1 |  | > 100 µM |  | > 100 µM | > 100 µM | > 100 µM |  | > 100 µM | > 100 µM | > 100 µM |  |  |  |  |  |  |  |  | 
7 | C(=N/N(Cc1ccccc1)Cc1ccccc1)/c1ccccc1 | > 100 µM | > 100 µM |  | > 100 µM | > 100 µM | > 100 µM |  | > 100 µM | > 100 µM | > 100 µM | > 100 µM | > 100 µM | 94.9 µM | > 100 µM | 75 µM | 53.3 µM | > 100 µM | > 100 µM | 
8 | O=C(Nc1cccc(-n2cc(-c3ccncc3)c(-c3cc(O)cc(Cl)c3)n2)c1)c1cc(C(F)(F)F)cc(C(F)(F)F)c1 | > 100 µM | 14.7 µM |  | 90.8 µM | > 100 µM | 22.4 µM | > 100 µM | 11.6 µM | > 100 µM |  | 3.58 µM | 2.6 µM | 4.75 µM | 3.04 µM | 3.79 µM |  | 3.12 µM | 8.53 µM | 2.68 µM
9 | O=C1c2sccc2-c2cccc3cccc1c23 (tested in a mixture with another compound) | 36.4 µM | 24.9 µM | 46.1 µM |  | 82.6 µM | 22.6 µM | 12.8 µM |  | 33.9 µM |  |  |  |  |  |  |  |  |  | 
10 | N#CC(c1ccccn1)c1nc2ccccc2[nH]1 (configuration not stated) | > 100 µM |  | > 100 µM | > 100 µM | > 100 µM | > 100 µM | > 100 µM | > 100 µM | > 100 µM |  |  |  |  |  |  |  |  |  | 
11 | O=C(O)CCC(=O)c1ccc2sc3ccccc3c2c1 | > 100 µM | > 100 µM | > 100 µM | > 100 µM | > 100 µM | > 100 µM |  |  | > 100 µM |  |  |  |  |  |  |  |  |  | 
12 | C=CNC(=O)NC(=O)CSc1nnc(-c2ccccc2NC(=O)C(F)(F)F)c(=O)[nH]1 | > 100 µM | > 100 µM |  |  | > 100 µM | > 100 µM | > 100 µM | > 100 µM |  | 86.6 µM |  |  |  |  |  |  |  |  | 
13 | c1ccc(CCc2cccnc2)nc1 | > 100 µM | > 100 µM |  | > 100 µM | > 100 µM | > 100 µM |  |  | > 100 µM | > 100 µM |  |  |  |  |  |  |  |  | 
14 | O=S(=O)(c1cccc(N=C=S)c1)c1cccc(N=C=S)c1 |  | 33.8 µM | 50 µM |  |  | 36.2 µM |  | 46.7 µM |  |  |  |  |  |  |  |  |  |  | 
15 | O=C(O)Cc1cccnc1 | > 100 µM | > 100 µM |  | > 100 µM | > 100 µM | > 100 µM | > 100 µM | > 100 µM | > 100 µM | > 100 µM |  |  |  |  |  |  |  |  | 
16 | C/C(=C\c1cnc(C)s1)[C@@H]1C[C@@H]2O[C@@H]2CCC[C@H](C)[C@H](O)[C@@H](C)C(=O)C(C)(C)[C@@H](O)CC(=O)O1 | > 100 µM | > 100 µM |  |  | > 100 µM | > 100 µM | > 100 µM | > 100 µM | > 100 µM | > 100 µM | < 0.01 µM | < 0.01 µM |  | < 0.01 µM | < 0.01 µM | < 0.0162 µM | 0.0103 µM |  | < 0.01 µM
17 | Cc1cc(C#Cc2ccc(C(C)(C)C)cc2)ccc1-n1c(/C=C/c2ccc(O)cc2O)nc2ccccc2c1=O | 12.5 µM | 10.2 µM |  | 11.4 µM | 3.75 µM | 13.5 µM | > 100 µM | 3.85 µM | 14.7 µM | 8.31 µM | 3.55 µM | 2.74 µM | 2.98 µM | 1.82 µM | 3.52 µM | 2.82 µM | 1.93 µM | 3.15 µM | 3.85 µM
